According to publication PMC4257678, “Influence of Sampling on the Determination of Warfarin and Warfarin Alcohols in Oral Fluid” (PLoS ONE, 2014):
Read-outs that look alike come from different tables or passages of the source.

Legend:
[1] = PBS 25 mM pH 7 / 1-octanol, 25°C, 24 hours, n = 3
Description: The LogKow value at pH = 7 of both diastereoisomers of WAROHs was determined using the standardized OECD guidelines [25]. Briefly, a standard working solution of WAROHs (1000 ng/mL, C1) was prepared in triplicate in the PBS buffer (25 mM at pH = 7) and then mechanically stirred with an equal volume (4 mL) of 1-octanol at 25°C for 24 hours. The phase separation was obtained at room temperature by centrifuging at 5000 rpm for 5 min. […] The concentration in the organic phase was calculated by subtracting C2 and C3 from C1. LogKow at pH = 7 is expressed as the ratio of the compound concentration in the organic phase to that in the aqueous phase.
The value of LogKow at pH = 7 of both diastereoisomers of WAROHs was determined by the standardized shake-flask method. Octanol was added to a working solution of the WAROHs prepared in PBS at pH 7.0.

[2] = not given; remark: listed apart in the source
[3] = dissociation constant by HPLC-FLD at different mobile phase pH and methanol content; conditions: for best aqueous pKa: psKa vs Rwt% extrapolated at zero organic content
Description: In brief, a standard working solution of WAROHs (1060 ng/mL) was prepared in a PBS buffer (25 mM at different pH value) and then analyzed in triplicate by HPLC-FLD. This approach is based on the different chromatographic behaviour of dissociated and non-dissociated forms of each compound at different pH values of the mobile phase. The pH was lowered in steps of 1 unit and ranged from 7.0 to 3.0. To reach the required pH, different aliquots of H3PO4 (85 wt% in H2O) were added to the mobile phase. The resulting pH was further checked by a pH-meter.
The capacity factor to pH variation ratio (Δk’/ΔpH) of both diastereoisomers was determined with different contents of organic modifiers (Rwt%: 40, 50 and 60) in the methanol-PBS mobile phase. The cosolvent dissociation constant (psKa) value was calculated by equation 1 [27]: [drawing 1] (1) where k’ HA and k’ A are the capacity factors of non-dissociate and dissociate forms, respectively. The pH and k’ values were defined as the corresponding point with a […] slope in the Δk’/ΔpH plot.
The dissociation constant (pKa) of both diastereoisomers of WAROHs was determined at different pH values of the mobile phase by the HPLC-FLD method by varying the organic solvent/water ratio.

[4] = design: method as in PMID 16867718; conditions: at 25°C; cited from earlier work
[5] = design: method as in PMID 16867718; conditions: T = 25°C; cited from earlier work
[6] = 14 patients undergoing WAR therapy

In the case of `CC(O)CC(c1ccccc1)c1c(O)c2ccccc2oc1=O` (centres unmarked) [RR/SS-warfarin alcohols], the “concentration in pooled patients oral fluid sample” value (Figure 2E, extracted PPOFS) is reported as 0.6 ng/mL, the “LogKow at pH = 7” value [1] is reported as 0.83 ± 0.01 and the “total plasma concentration (mean ± s.d.)” value [2, 6] is reported as 30 ± 20 ng/mL. For the same compound, the “total plasma concentration (range)” value [2, 6] was 13 to 82 ng/mL and the “best aqueous pKa” value [3] was 6.55 ± 0.04.

For `CC(O)CC(c1ccccc1)c1c(O)c2ccccc2oc1=O` (centres unmarked) [RS/SR-warfarin alcohols], the “concentration in non-stimulated OF samples (mean ± s.d.)” value [6] was 3 ± 2 ng/mL, the “concentration in non-stimulated OF samples (range)” value [6] was 1 to 5 ng/mL and the “concentration in stimulated OF samples (mean ± s.d.)” value [6] was 3 ± 2 ng/mL. For the same compound, the “concentration in stimulated OF samples (range)” value [6] was 1 to 6 ng/mL, the “concentration in pooled patients oral fluid sample” value (Figure 2E, extracted PPOFS) was 10.1 ng/mL and the “LogKow at pH = 7” value [1] was 0.93 ± 0.01. For the same compound, the “total plasma concentration (mean ± s.d.)” value [2, 6] was 600 ± 300 ng/mL, the “total plasma concentration (range)” value [2, 6] was 100 to 1100 ng/mL and the “unbound plasma concentration (mean ± s.d.)” value [2, 6] was 5 ± 3 ng/mL. For the same compound, the “unbound plasma concentration (range)” value [2, 6] was 1 to 10 ng/mL and the “best aqueous pKa” value [3] was 5.73 ± 0.03.

With `CC(=O)CC(c1ccccc1)c1c(O)c2ccccc2oc1=O` (stereo not drawn) [WAR, 3-(α-acetonylbenzyl)-4-hydroxycoumarin, reference compound] the “concentration in non-stimulated OF samples (mean ± s.d.)” value (human, in vivo) was 3 ± 2 ng/mL, the “concentration in non-stimulated OF samples (range)” value (human, in vivo) was 1 to 5 ng/mL and the “concentration in stimulated OF samples (mean ± s.d.)” value (human, in vivo) was 6 ± 3 ng/mL. For the same compound, the “concentration in stimulated OF samples (range)” value (human, in vivo) was 1 to 14 ng/mL, the “concentration in pooled patients oral fluid sample” value (human, in vivo, po) was 9.8 ng/mL and the “LogKow at pH = 7” value [1] was 0.94 ± 0.05. The LogP [4] was 2.82 ± 0.06, the “total plasma concentration (mean ± s.d.)” value ([2]; human, in vivo) was 1300 ± 500 ng/mL and the “total plasma concentration (range)” value ([2]; human, in vivo) was 400 to 2000 ng/mL. For the same compound, the “unbound plasma concentration (mean ± s.d.)” value ([2]; human, in vivo) was 9 ± 4 ng/mL, the “unbound plasma concentration (range)” value ([2]; human, in vivo) was 3 to 17 ng/mL and the pKa [5] was 5.15 ± 0.04. The pKa [3] was 5.42 ± 0.03.
